From patent US20080293727A1, “Novel sulfonamide inhibitors of aspartyl protease” (priority 1992, published 2008) come the findings set out here.

The target of the assay is HIV-1 protease (Human immunodeficiency virus type 1 group M subtype B, UniProt P04585). As to the kind of experiment: Inhibition constants against HIV-1 protease (method of Pennington et al.). Format: biochemical. Particulars: HIV-1 protease; read-out: Ki value. The source says:
We measured the inhibition constants of the compounds listed in Table VII against HIV-1 protease using the above-cited method of Pennington et al.

Turning to `CC(=O)Nc1ccc(S(=O)(=O)N(CC(C)C)C[C@@H](O)[C@H](Cc2ccccc2)NC(=O)OC(C)(C)C)cc1` [Compound 39], the inhibitory constant (Ki) – broadly, a dissociation constant, usually derived from enzyme kinetics or from competition with a known ligand – is 17 nM.
Take `CC(C)CN(C[C@@H](O)[C@H](Cc1ccccc1)NC(=O)COc1ccccc1)S(=O)(=O)c1cccc2nonc12` [Compound 57]: the Ki was 200 nM.
Regarding `COc1ccc(S(=O)(=O)N(C)C[C@@H](O)[C@H](Cc2ccccc2)NC(=O)O[C@H]2CCOC2)cc1` [Compound 1005], the Ki amounted to 250 nM.
Turning to `CC(=O)Nc1ccc(S(=O)(=O)N(CC(C)C)C[C@@H](O)[C@H](Cc2ccccc2)NC(=O)[C@@H]2CCC(=O)N2)cc1` [Compound 43], the Ki was found to be 4200 nM.
With `C=CCOC(=O)N[C@@H](Cc1ccccc1)[C@H](O)CN(CC(C)C)S(=O)(=O)c1ccc(Cl)c(Cl)c1` [Compound 81], the Ki is 2.3 nM.
`Cc1noc(C)c1S(=O)(=O)N(Cc1ccccc1)C[C@@H](O)[C@H](Cc1ccccc1)NC(=O)[C@H](CC(N)=O)NC(=O)c1ccc2ccccc2n1` [Compound 3]: the inhibitory constant (Ki) amounted to 32 nM.
Consider `CC(C)CN(C[C@@H](O)[C@H](Cc1ccccc1)NC(=O)O[C@H](C)c1ccccc1)S(=O)(=O)c1cccc2nonc12` [Compound 59], for which the inhibitory constant (Ki) stood at 206 nM.
As for `C=CCOC(=O)N[C@@H](Cc1ccccc1)[C@H](O)CN(CC1CCCC1)S(=O)(=O)c1ccc2c(c1)CCN2C(C)=O` [Compound 156], the inhibition constant Ki is 2.8 nM.
Regarding `O=C(NC(Cc1ccccc1)C(O)CN(CC1CCCO1)S(=O)(=O)c1ccc(F)cc1)OC1CCOC1` (stereo not shown) [Compound 132], the inhibition constant (Ki) was determined as 6 nM.
The value for `CC(C)(C)OC(=O)N[C@@H](Cc1ccccc1)[C@H](O)CN(CC1CCCC1)S(=O)(=O)c1ccc(Cl)c(Cl)c1` [Compound 84] was 1.4 nM.
As for `CC(=O)Nc1ccc(S(=O)(=O)N(CC(C)C)C[C@@H](O)[C@H](Cc2ccccc2)NC(=O)NCc2ccccc2)cc1` [Compound 33], the inhibitory constant (Ki) was 80 nM.
As to `CC(C)CN(C[C@@H](O)[C@H](Cc1ccccc1)NC(=O)O[C@@H]1CCOC1)S(=O)(=O)c1ccc(F)cc1` [Compound 93, 4-Fluoro-N-((2 syn,3S)-2-hydroxy-4-phenyl-3-((R)-tetrahydrofuran-3-yloxycarbonylamino)-butyl)-N-isobutyl-benzenesulfonamide], the Ki was determined as 0.8 nM.
With `CC(=O)Nc1cc(S(=O)(=O)N(CC(C)C)C[C@@H](O)[C@H](Cc2ccccc2)NC(=O)[C@H](CC(N)=O)NC(=O)c2ccc3ccccc3n2)ccc1F` [Compound 16, (S)-N-1-(3-((3-Acetylamino-4-fluoro-benzenesulfonyl)-isobutyl-amino)-(1S,2 syn)-1-benzyl-2-hydroxy-propyl)-2-((quinoline-2-carbonyl)-amino)-succinamide], the Ki was < 0.1 nM.
For `CC(=O)Nc1ccc(S(=O)(=O)N(CC(C)C)C[C@@H](O)[C@H](Cc2ccccc2)NC(=O)O[C@H]2CCOC2)cc1` [Compound 48, N-(4-(((2 syn,3S)-2-Hydroxy-4-phenyl-3-((S)-tetrahydrofuran-3-yloxycarbonylamino)-butyl)-isobutyl-sulfamoyl)-phenyl)-acetamide], the Ki worked out at 1.4 nM.
Take `O=C(N[C@@H](Cc1ccccc1)[C@H](O)CN(CC1CCCC1)S(=O)(=O)c1ccc(O)cc1)O[C@H]1CCOC1` [Compound 169, N-Cyclopentylmethyl-4-hydroxy-N-((2 syn,3S)-2-hydroxy-4-phenyl-3-((S)-tetrahydrofuran-3-yloxycarbonylamino)-butyl)-benzenesulfonamide]: the inhibition constant Ki was < 0.1 nM.
The value for `COc1ccc(OC)c(S(=O)(=O)N[C@@H](Cc2ccccc2)[C@H](O)CN(CC(C)C)S(=O)(=O)c2ccc(F)c(NC(C)=O)c2)c1` [Compound 73] was 140 nM.
The value for `CC(C)CN(C[C@@H](O)[C@H](Cc1ccccc1)NC(=O)O[C@H]1CCOC1)S(=O)(=O)c1cccc2nonc12` [Compound 60] was 4 nM.
Consider `COc1ccc(S(=O)(=O)N(CC2CCCO2)CC(O)C(Cc2ccccc2)NC(=O)OC2CCOC2)cc1` (stereo not shown) [Compound 1007], for which the inhibitory constant (Ki) is 42 nM.
Consider `CC(C)CN(C[C@@H](O)[C@H](Cc1ccccc1)NC(=O)O[C@H]1CCOC1)S(=O)(=O)c1cccnc1` [Compound 1003], for which the Ki was found to be 8 nM.
Consider `CC(C)CN(C[C@@H](O)[C@H](Cc1ccccc1)NC(=O)OC(C)(C)C)S(=O)(=O)c1ccccc1` [Compound 45], for which the inhibitory constant (Ki) was 6 nM.
For the compound `CN(C[C@@H](O)[C@H](Cc1ccccc1)NC(=O)OC(C)(C)C)S(=O)(=O)c1ccc(Cl)c(Cl)c1` [Compound 126], the inhibition constant Ki was 310 nM.
The same measure for `CC(=O)Nc1ccc(S(=O)(=O)N(CC(C)C)C[C@@H](O)[C@H](Cc2ccccc2)NC(=O)C(=O)C(C)(C)C)cc1` [Compound 1001]: 220 nM; for `CC(=O)Nc1ccc(S(=O)(=O)N(CC2CCCCC2)C[C@@H](O)[C@H](Cc2ccccc2)NC(=O)O[C@H]2CCOC2)cc1` [Compound 160, N-(4-(Cyclohexylmethyl)-((2 syn,3S)-2-hydroxy-4-phenyl-3-((S)-tetrahydrofuran-3-yloxycarbonylamino)-butyl)-sulfamoyl-phenyl)-acetamide]: 1 nM.
For `NC(=O)C[C@H](NC(=O)c1ccc2ccccc2n1)C(=O)N[C@@H](Cc1ccccc1)[C@H](O)CN(Cc1ccccc1)S(=O)(=O)c1cccc(S(N)(=O)=O)c1` [Compound 10, N-1-(1-(S)-Benzyl-3-(benzyl-(3-sulfamoyl-benzenesulfonyl)-amino)-2-(syn)-hydroxy-propyl)-2-((quinoline-2-carbonyl)-amino)-succinamide], the inhibitory constant (Ki) amounted to 4 nM.
The value for `C=CCOC(=O)N[C@@H](Cc1ccccc1)[C@H](O)CN(CC1CCCC1)S(=O)(=O)c1ccc(NC(C)=O)cc1` [Compound 146, N-(4-((3-(Allyloxycarbonylamino)-(2 syn,3S)-2-hydroxy-4-phenyl-butyl)-cyclopentylmethylsulfamoyl)-phenyl)-acetamide] was 2 nM; that for `CC(C)CN(C[C@@H](O)[C@H](Cc1ccccc1)NC(=O)O[C@H]1CCOC1)S(=O)(=O)c1ccc(OC(F)(F)F)cc1` [Compound 152] was 2.5 nM; that for `CC(=O)Nc1ccc(S(=O)(=O)N(CC2CCCC2)C[C@@H](O)[C@H](Cc2ccccc2)NC(=O)O[C@H]2CCOC2)cc1` [Compound 125, N-(4-(Cyclopentylmethyl-((2 syn,3S)-2-hydroxy-4-phenyl-3-((S)-tetrahydrofuran-3-yloxycarbonylamino)-butyl)-sulfamoyl)-phenyl)-acetamide] was 0.3 nM.
With `CC(=O)Nc1ccc(S(=O)(=O)N(C)C[C@@H](O)[C@H](Cc2ccccc2)NC(=O)O[C@H]2CCOC2)cc1` [Compound 101], the inhibition constant Ki worked out at 250 nM.
As for `COC(=O)N[C@@H](Cc1ccccc1)[C@H](O)CN(CC(C)C)S(=O)(=O)c1ccc(NC(C)=O)cc1` [Compound 102], the inhibition constant Ki was determined as 33 nM.
As for `C=CCOC(=O)N[C@@H](Cc1ccccc1)[C@H](O)CN(CC1CCCC1)S(=O)(=O)c1ccc(OC)cc1` [Compound 141, N-((3-allyloxycarbonylamino)-(2 syn,3S)-2-hydroxy-4-phenyl-butyl)-N-cyclopentylmethyl-4-methoxy-benzenesulfonamide], the Ki was found to be 0.1 nM.
The value for `C=C(C)COC(=O)N[C@@H](Cc1ccccc1)[C@H](O)CN(CC(C)C)S(=O)(=O)c1ccc(NC(C)=O)cc1` [Compound 105] was 7.5 nM; that for `CC(=O)Nc1cc(S(=O)(=O)N(CC(C)C)C[C@@H](O)[C@H](Cc2ccccc2)NC(=O)O[C@H]2CCOC2)ccc1F` [Compound 88, N-(2-Fluoro-5-(((2 syn,3S)-2-hydroxy-4-phenyl-3-((S)-tetrahydrofuran-3-yloxycarbonylamino)-butyl)-isobutyl-sulfamoyl)-phenyl)-acetamide] was 1.4 nM.
Take `CC(C)CN(C[C@@H](O)[C@H](Cc1ccccc1)NS(=O)(=O)N(C)C)S(=O)(=O)N(C)C` [Compound 72]: the Ki was 4000 nM.
Turning to `COc1ccc(S(=O)(=O)N(CC2CCCC2)C[C@@H](O)[C@H](Cc2ccccc2)NC(=O)OCc2cccc(OC)c2)cc1` [Compound 178], the Ki came to 0.1 nM.
Consider `CC(=O)Nc1nc(C)c(S(=O)(=O)N(CC(C)C)C[C@@H](O)[C@H](Cc2ccccc2)NC(=O)[C@H](CC(N)=O)NC(=O)c2ccc3ccccc3n2)s1` [Compound 18], for which the inhibition constant Ki is < 0.1 nM.
`N#Cc1ccc(S(=O)(=O)N(CC2CCCC2)C[C@@H](O)[C@H](Cc2ccccc2)NC(=O)O[C@H]2CCOC2)cc1` [Compound 181]: the inhibitory constant (Ki) is 0.3 nM.
Take `CC(C)CN(C[C@@H](O)[C@H](Cc1ccccc1)NC(=O)O[C@H]1CCOC1)S(=O)(=O)c1cc(Cl)c(Cl)s1` [Compound 95]: the Ki worked out at 1.3 nM.
Take `CC(=O)Nc1ccc(S(=O)(=O)N(CC(C)C)C[C@@H](O)[C@H](Cc2ccccc2)NC(=O)O[C@H]2CCOC2)cc1Cl` [Compound 53]: the inhibition constant Ki amounted to 27 nM.
Regarding `O=C(N[C@@H](Cc1ccccc1)[C@H](O)CN(CC1CCCC1)S(=O)(=O)c1ccc(F)cc1)O[C@H]1CCOC1` [Compound 182, N-Cyclopentylmethyl-4-fluoro-N-((2 syn,3S)-2-hydroxy-4-phenyl-3-((S)-tetrahydrofuran-3-yloxycarbonylamino)-butyl)-benzenesulfonamide], the inhibition constant (Ki) worked out at 0.2 nM.
On to `CC(C)CN(C[C@@H](O)[C@H](Cc1ccccc1)NC(=O)[C@@H](NC(=O)OCc1cccnc1)C(C)C)S(=O)(=O)c1cccc2nonc12` [Compound 25], for which the inhibition constant Ki stood at 3000 nM.
`COc1ccc(S(=O)(=O)N(CCN2CCCCC2)C[C@@H](O)[C@H](Cc2ccccc2)NC(=O)O[C@H]2CCOC2)cc1` [Compound 1014]: the inhibition constant (Ki) is 9300 nM.
For `CC(C)CN(C[C@@H](O)[C@H](Cc1ccccc1)NC(=O)[C@H](CC(N)=O)NC(=O)c1ccc2ccccc2n1)S(=O)(=O)N(C)C` [Compound 21, N-1-((1S-2 syn)-1-Benzyl-2-hydroxy-3-(1-isobutyl-3,3-dimethylsulfonylurea)-propyl)-2-((quinoline-2-carbonyl)-amino)-succinamide], the Ki worked out at 0.7 nM.
`C=C(COC)COC(=O)N[C@@H](Cc1ccccc1)[C@H](O)CN(CC(C)C)S(=O)(=O)c1ccc(NC(C)=O)cc1` [Compound 155, N-4-((2-(syn)-Hydroxy-3-((2-methoxymethyl-allyloxycarbonylamino)-4-(S)-phenyl-butyl)-isobutyl-sulfamoyl)-phenyl)-acetamide]: the Ki is 1.7 nM.
